In ChEMBL document CHEMBL1156689, “Comparison of the cytotoxic activities of naturally occurring hydroxyanthraquinones and hydroxynaphthoquinones” (Eur J Med Chem, 2008):

Tests used:
HepG2 = assay: Cytotoxicity against MDR1 Pgp overexpressing human HepG2 cells after 24 hrs by MTT assay; format: functional, cell-based; conditions: HepG2, 24 h
HCT-116 = assay: Cytotoxicity against MDR1 Pgp under-expressing human HCT116 cells after 24 hrs by MTT assay; format: functional, cell-based; conditions: HCT-116, 24 h

| Structure (SMILES) | IC50 (HepG2) | IC50 (HCT-116) |
| --- | --- | --- |
| O=C1c2cc(CO)cc(O)c2C(=O)c2c(O[C@@H]3O[C@H](CO)[C@@H](O)[C@H](O)[C@H]3O)cccc21 | > 100 µM | 75 µM |
| CC(C)=CC[C@H](OC(=O)C1OC1C)C1=CC(=O)c2c(O)ccc(O)c2C1=O (some centres undefined) | 0.34 µM | 0.39 µM |
| CCC(=O)Oc1cc(C)cc2c1C(=O)c1c(OC(=O)CC)cc(OC)cc1C2=O | > 100 µM | 9.2 µM |
| CCC(=O)Oc1cccc2c1C(=O)c1c(OC(=O)CC)cc(C)cc1C2=O | > 100 µM | 14.8 µM |
| CC(=O)O[C@@H](CC=C(C)C)C1=CC(=O)c2c(O)ccc(O)c2C1=O [ACETYLALKANNIN] | 0.39 µM | 0.34 µM |
| CC(=O)O[C@H](CC=C(C)C)C1=CC(=O)c2c(O)ccc(O)c2C1=O [ACETYLSHIKONIN] | 0.38 µM | 0.45 µM |
| O=C1c2cccc(O)c2C(=O)c2c(O)cc(CO)cc21 [ALOE-EMODIN] | 10 µM | 8.7 µM |
| CC(C)=CC[C@@H](OC(=O)CC(C)(C)O)C1=CC(=O)c2c(O)ccc(O)c2C1=O [BETA-HYDROXYISOVALERYLSHIKONIN] | 0.59 µM | 0.37 µM |
| Cc1cc(O)c2c(c1)C(=O)c1cccc(O)c1C2=O [CHRYSOPHANOL] | 64.4 µM | 47.4 µM |
| Cc1cc(O)c2c(c1)C(=O)c1cc(O)cc(O)c1C2=O [EMODIN] | 5.2 µM | 5.7 µM |
| CCO[C@H](CC=C(C)C)C1=CC(=O)c2c(O)ccc(O)c2C1=O [ETHYLSHIKONIN] | 0.42 µM | 0.45 µM |
| CC(C)=CC[C@H](OC(=O)C(C)C)C1=CC(=O)c2c(O)ccc(O)c2C1=O [ISOBUTYLALKANNIN] | 0.42 µM | 0.3 µM |
| CC(C)=CC[C@@H](OC(=O)C(C)C)C1=CC(=O)c2c(O)ccc(O)c2C1=O [ISOBUTYLSHIKONIN] | 0.22 µM | 0.34 µM |
| COc1cc(O)c2c(c1)C(=O)c1cc(C)cc(O)c1C2=O [PHYSCION] | 77.3 µM | 19 µM |
| O=C(O)c1cc(O)c2c(c1)C(=O)c1cccc(O)c1C2=O [RHEIN] | 12.3 µM | 13 µM |
| CC(C)=CC[C@@H](O)C1=CC(=O)c2c(O)ccc(O)c2C1=O [SHIKONIN] | 0.24 µM | 0.23 µM |
| O=C(O)c1cc(O)c2c(c1)[C@H]([C@H]1c3cc(C(=O)O)cc(O)c3C(=O)c3c(O[C@@H]4O[C@H](CO)[C@@H](O)[C@H](O)[C@H]4O)cccc31)c1cccc(O[C@@H]3O[C@H](CO)[C@@H](O)[C@H](O)[C@H]3O)c1C2=O [Sennoside A] | 51.6 µM | 68.2 µM |
